Reference: patent US20180148418A1, “AMIDO-SUBSTITUTED CYCLOHEXANE DERIVATIVES” (Bayer Pharma Aktiengesellschaft, priority 2015, published 2018)

These compounds were tested against T1, TNKS1 (Homo sapiens, UniProt O95271) (assay: TNKS1 Assay B (auto-parsylation, [3H]-NAD+ SPA)). Conditions: 6 nM TNKS1, auto-parsylation, over night at room temperature.
T1 construct: purchased BPS Bioscience, San Diego, USA 80579 (TNKS1 Histone Ribosylation Assay Kit)
T1 sequence (O95271 1-1327): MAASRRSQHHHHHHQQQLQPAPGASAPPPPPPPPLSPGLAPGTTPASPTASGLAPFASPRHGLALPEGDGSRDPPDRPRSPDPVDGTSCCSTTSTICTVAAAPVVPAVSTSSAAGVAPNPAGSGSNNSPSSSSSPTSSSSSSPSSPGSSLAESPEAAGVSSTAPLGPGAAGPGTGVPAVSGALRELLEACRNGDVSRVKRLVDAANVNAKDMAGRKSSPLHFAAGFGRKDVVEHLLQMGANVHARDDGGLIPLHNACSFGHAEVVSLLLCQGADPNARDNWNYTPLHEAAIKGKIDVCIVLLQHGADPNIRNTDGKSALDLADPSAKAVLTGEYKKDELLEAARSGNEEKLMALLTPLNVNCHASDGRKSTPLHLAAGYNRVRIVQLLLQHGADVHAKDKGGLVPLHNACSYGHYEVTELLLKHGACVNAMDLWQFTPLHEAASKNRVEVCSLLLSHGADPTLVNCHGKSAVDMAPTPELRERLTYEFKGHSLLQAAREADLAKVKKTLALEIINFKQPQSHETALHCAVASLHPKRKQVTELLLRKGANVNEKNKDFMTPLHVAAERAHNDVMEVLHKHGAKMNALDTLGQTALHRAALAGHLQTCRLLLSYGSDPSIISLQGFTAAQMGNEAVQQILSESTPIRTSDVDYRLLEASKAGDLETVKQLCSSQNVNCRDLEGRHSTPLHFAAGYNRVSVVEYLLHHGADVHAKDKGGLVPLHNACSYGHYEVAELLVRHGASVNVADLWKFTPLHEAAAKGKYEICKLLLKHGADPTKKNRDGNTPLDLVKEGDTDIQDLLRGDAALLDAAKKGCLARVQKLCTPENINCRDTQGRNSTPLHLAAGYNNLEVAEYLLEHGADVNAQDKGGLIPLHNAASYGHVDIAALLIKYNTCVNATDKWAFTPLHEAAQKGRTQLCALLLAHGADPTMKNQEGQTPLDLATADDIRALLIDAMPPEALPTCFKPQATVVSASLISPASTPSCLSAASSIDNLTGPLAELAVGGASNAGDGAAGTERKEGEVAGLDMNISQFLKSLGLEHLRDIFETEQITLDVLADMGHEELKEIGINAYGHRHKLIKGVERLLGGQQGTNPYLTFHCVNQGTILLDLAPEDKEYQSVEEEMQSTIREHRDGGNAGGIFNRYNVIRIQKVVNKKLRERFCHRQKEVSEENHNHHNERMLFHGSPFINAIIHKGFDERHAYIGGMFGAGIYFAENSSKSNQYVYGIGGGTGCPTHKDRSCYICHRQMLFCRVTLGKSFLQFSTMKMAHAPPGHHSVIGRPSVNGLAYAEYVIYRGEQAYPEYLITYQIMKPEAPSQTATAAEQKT
Assay type: biochemical

| SMILES | IC50 [nM] |
| --- | --- |
| CC1CN(C(=O)c2nc[nH]c2C(=O)N[C@H]2CC[C@@]3(CCN(c4ccc(F)cc4Cl)C3=O)CC2)CCS(=O)(=O)C1 (stereo partly drawn) [Example 183, N-[(trans)-2-(2-chloro-4-fluorophenyl)-1-oxo-2-azaspiro[4.5]dec-8-yl]-4-[(6-methyl-1,1-dioxido-1,4-thiazepan-4-yl)carbonyl]-1H-imidazole-5-carboxamide] | 700 |
| CN1CC2(CCN(C(=O)c3nc[nH]c3C(=O)N[C@H]3CC[C@@]4(CCN(c5ccc(F)cc5Cl)C4=O)CC3)C2)C1 [Example 184, N-[(trans)-2-(2-chloro-4-fluorophenyl)-1-oxo-2-azaspiro[4.5]dec-8-yl]-4-[(2-methyl-2,6-diazaspiro[3.4]oct-6-yl)carbonyl]-1H-imidazole-5-carboxamide] | 10 |
| CN1CC2(C1)CN(C(=O)c1nc[nH]c1C(=O)N[C@H]1CC[C@@]3(CCN(c4ccc(F)cc4Cl)C3=O)CC1)C2 [Example 185, N-[(trans)-2-(2-chloro-4-fluorophenyl)-1-oxo-2-azaspiro[4.5]dec-8-yl]-4-[(6-methyl-2,6-diazaspiro[3.3]hept-2-yl)carbonyl]-1H-imidazole-5-carboxamide] | 8.7 |
| NC(=O)c1nc[nH]c1C(=O)N[C@H]1CC[C@@]2(CCN(c3ccc(F)cc3Cl)C2=O)CC1 [Example 186, N^5-[(trans)-2-(2-chloro-4-fluorophenyl)-1-oxo-2-azaspiro[4.5]dec-8-yl]-1H-imidazole-4,5-dicarboxamide] | 18 |
| CN1CC(NC(=O)c2nc[nH]c2C(=O)N[C@H]2CC[C@@]3(CCN(c4ccc(F)cc4Cl)C3=O)CC2)C1 [Example 187, N^5-[(trans)-2-(2-chloro-4-fluorophenyl)-1-oxo-2-azaspiro[4.5]dec-8-yl]-N^4-(1-methylazetidin-3-yl)-1H-imidazole-4,5-dicarboxamide] | 12 |
| O=C(N[C@H]1CC[C@@]2(CCN(c3ccc(F)cc3Cl)C2=O)CC1)c1nc[nH]c1C(=O)NCC(F)(F)F [Example 195, N^4-[(trans)-2-(2-chloro-4-fluorophenyl)-1-oxo-2-azaspiro[4.5]dec-8-yl]-N^5-(2,2,2-trifluoroethyl)-1H-imidazole-4,5-dicarboxamide] | 11 |
| CNC(=O)c1nc[nH]c1C(=O)N[C@H]1CC[C@@]2(CCN(c3cc(F)c(F)cc3Cl)C2=O)CC1 [Example 196, N^5-[(trans)-2-(2-chloro-4,5-difluorophenyl)-1-oxo-2-azaspiro[4.5]dec-8-yl]-N^4-methyl-1H-imidazole-4,5-dicarboxamide] | 6.7 |
| CCNC(=O)c1nc[nH]c1C(=O)N[C@H]1CC[C@@]2(CCN(c3cc(F)c(F)cc3Cl)C2=O)CC1 [Example 197, N^5-[(trans)-2-(2-chloro-4,5-difluorophenyl)-1-oxo-2-azaspiro[4.5]dec-8-yl]-N^4-ethyl-1H-imidazole-4,5-dicarboxamide] | 4.5 |
| CC(C)NC(=O)c1nc[nH]c1C(=O)N[C@H]1CC[C@@]2(CCN(c3cc(F)c(F)cc3Cl)C2=O)CC1 [Example 198, N^5-[(trans)-2-(2-chloro-4,5-difluorophenyl)-1-oxo-2-azaspiro[4.5]dec-8-yl]-N^4-(propan-2-yl)-1H-imidazole-4,5-dicarboxamide] | 8 |
| O=C(NC1CC1)c1nc[nH]c1C(=O)N[C@H]1CC[C@@]2(CCN(c3cc(F)c(F)cc3Cl)C2=O)CC1 [Example 199, N^5-[(trans)-2-(2-chloro-4,5-difluorophenyl)-1-oxo-2-azaspiro[4.5]dec-8-yl]-N^4-cyclopropyl-1H-imidazole-4,5-dicarboxamide] | 7.5 |
| O=C(N[C@H]1CC[C@@]2(CCN(c3cc(F)c(F)cc3Cl)C2=O)CC1)c1[nH]cnc1C(=O)N1CC(F)C1 [Example 200, N-[(trans)-2-(2-chloro-4,5-difluorophenyl)-1-oxo-2-azaspiro[4.5]dec-8-yl]-4-[(3-fluoroazetidin-1-yl)carbonyl]-1H-imidazole-5-carboxamide] | 6.9 |
